Patent publication EP0034481A1, “2-Methyl-5-thiazole-methylamine and carboxamide derivatives” (Grigg, Ronald Ernest, priority 1980, dated 1981)

How the values were obtained:
[1] = Solubility in solvents (qualitative); assay type: physicochemical
guinea pig ileum = assay: Peripheral activity: contraction of the guinea pig ileum, relative to nicotine; assay type: cell-based
Method: Peripheral activity was determined by contraction of the guinea pig ileum/frog rectus while central nervous system activity was determined by adhesion to specific cell receptor surfaces.

Diazepam cell receptor = assay: Central nervous system activity: adhesion to specific cell receptor surfaces (diazepam cell receptor); assay type: binding
Method: Various compounds of this invention have been tested for their biological activity. Peripheral activity was determined by contraction of the guinea pig ileum/frog rectus while central nervous system activity was determined by adhesion to specific cell receptor surfaces.

LD50 (acute toxicity) = conditions: in vivo

soluble in water [1] | soluble in dilute hydrochloric acid [1] | soluble in ethanol [1] | soluble in chloroform ([1]; chloroform) | soluble in polyethylene glycol ([1]; polyethylene glycol) | Structure (SMILES) | Guinea Pig ileum test (% wrt nicotine) (guinea pig ileum) | Diazepam cell receptor adhesion (Diazepam cell receptor) [mM] | LD50 (LD50 (acute toxicity)) [mg/kg]
soluble | – | – | – | – | Cc1nnc(C(=O)N2CCCCC2)o1 [Example 11, 2-methyl-5-(piperidinocarbonyl)oxadiazole] | – | – | –
– | soluble | soluble | – | – | c1ccc(-c2ncc(CN3CCCCC3)s2)cc1 [Example 24, 2-phenyl-(5-piperidinomethyl)thiazole] | – | – | –
soluble | – | soluble | – | – | Cc1ncc(C(=O)N2CCCCC2)s1 [Example 2, 2-methyl-5-(piperidincrcarbonyl)thiazole] | – | 0.49 | –
– | soluble | soluble | – | – | c1ccc(-c2ncc(CN3CCCC3)s2)cc1 [Example 17, 2-phenyl-5-(pyrroli-dinomethyl)thiazole] | – | – | –
soluble | – | – | – | – | Cc1nnc(C(=O)N2CCOCC2)o1 [Example 13, 5-methyl-2-(morpholinocarbonyl)oxadiazole] | – | – | –
soluble | – | soluble | – | – | CCN(CC)C(=O)c1cnc(C)s1 [Example 6, N,N-diethyl 2-methyl-5-thiazolecarboxamide] | – | 3.2 | –
soluble | – | soluble | – | – | Cc1ncc(C(=O)N2CCCC2)s1 [Example 1, 2-Methyl-5-(pyrrolidinocarbonyl)thiazole] | – | 0.55 | –
soluble | soluble | soluble | – | – | Cc1ncc(C(=O)N2CCOCC2)s1 [Example 3, 2-methyl-S-(morpholinocarbonyl)thiazole] | – | 1.0 | –
– | – | – | soluble | soluble | Cc1ncc(C(=O)N2CCN(C(=O)c3cnc(C)s3)CC2)s1 [Example 5, N,N'-bis(2-methyl-5-thiazolecarbonyl)piperazine] | – | – | –
soluble | soluble | soluble | – | – | Cc1ncc(CN2CCOCC2)s1 [Example 20, 2-methyl-5-(morpholinomethyl)thiazole] | – | 11 | –
soluble | – | – | – | – | Cc1nnc(C(=O)N2CCCC2)o1 [Example 12, 5-methyl-2-(pyrrolidinocarbonyl)oxadiazole] | – | – | –

Structure (SMILES) | soluble in water [1] | soluble in dilute hydrochloric acid [1] | soluble in ethanol [1] | soluble in chloroform ([1]; chloroform) | soluble in polyethylene glycol ([1]; polyethylene glycol) | Guinea Pig ileum test (% wrt nicotine) (guinea pig ileum) | Diazepam cell receptor adhesion (Diazepam cell receptor) [mM] | LD50 (LD50 (acute toxicity)) [mg/kg]
Cc1ncc(C(=O)NC23CC4CC(CC(C4)C2)C3)s1 [Example 7, N-adamantyl 2-methyl-5-thiazolecarboxamide] | soluble | soluble | soluble | – | – | 0 | – | –
CCN(CC)Cc1cnc(C)s1 [Example 21, 2-methyl-5-(diethylaminomethyl)thiazole] | soluble | – | soluble | – | – | – | 5.5 | 80 to 100
Cc1ncc(CN2CCCCC2)s1 [Example 19, 2-methyl-S-(piperidinomethyl)thiazole] | soluble | – | soluble | – | – | – | 1.0 | 7 to 8
Cc1ncc(CN2CCCC2)s1 [Example 18, 2-methyl-5-(pyrrolidinomethyl)thiazole] | soluble | – | soluble | – | – | – | 4.4 | 7 to 8
